Reference: patent US10172909B2, “Neuropeptide analogs, compositions, and methods for treating pain” (NeuroAdjuvants, Inc., priority 2010, dated 2019)
Square brackets hold non-standard residues; d marks the D form. Ends that are not written are not given here. Peptide text beside a SMILES is read from it. * marks the point of attachment. MeO(CH2CH2O)23CH2CH2CO = COCCOCCOCCOCCOCCOCCOCCOCCOCCOCCOCCOCCOCCOCCOCCOCCOCCOCCOCCOCCOCCOCCOCCOCCC(=O)*; α‑Lnn = alpha-linolenic acid on Lys, CC/C=C\C/C=C\C/C=C\CCCCCCCC(=O)*; NMeW = CN[C@@H](Cc1c[nH]c2ccccc12)C(=O)O; MPEG24 = PEG24 on Lys (Lys-MPEG_24); Palmitoyl = CCCCCCCCCCCCCCCC(=O)*; MPEG4 = PEG4 on Lys (Lys-MPEG_4); Ahx = NCCCCCC(=O)O; Sar = CNCC(=O)O

Columns and labels:
mice = experiment: formalin test of acute and chronic hyperalgesia in mice; type: in vivo; design: AUC Acute: unit not given beside the values; conditions: mouse formalin test; for AUC Acute / AUC Inflammatory: i.p., licking AUC as percentage of control AUC, mean ± S.E.M., n=8
Protocol: Gal-93 and other MEGylated analogs were tested using the formalin test of acute and chronic hyperalgesia in mice. The formalin test was performed according to the method described by Tjolsen et al. (Tjolsen A, Berge O G, Hunskaar S, Rosland J H, Hole K. The Formalin Test: An Evaluation of the Method. Pain 53(2), 237; 1992). More specifically, an injection of 0.5% formalin is made into the plantar region of the right hind paw of a mouse. This elicits a distinct behavioral profile in response to the formalin injection characterized by the mouse licking the affected paw. The behavior is characteristically biphasic in nature. For example, immediately following the injection the mouse intensely licks the paw for approximately 5-10 min. This initial behavior is considered phase 1 (acute) and is thought to be mediated primarily by chemical activation of local C-fibers. The acute phase is followed by a brief latent (usually <5 min) period where there is little or no behavioral activity. A more prolonged (about 20 to 30 min) period of licking then ensues which constitutes phase 2 of the response (inflammatory). Prior to the administration of the test drug or vehicle, each mouse undergoes a 15-min conditioning period in one of several 6″ tall plexiglass cages (4″ diameter) that are placed in front of a mirror. It is in these tubes that mice are observed for the licking activity for the duration of the experiment. Following conditioning, the test substance is dosed i.p. after which the mouse is returned to its home tube. At the TPE of the test substance, formalin is injected sub-dermally into the plantar surface of the right hind foot in a volume of 20 μl with a 27 gauge stainless steel needle attached to a Hamilton syringe. The bevel of the needle is placed facing down toward the skin surface.
The cumulative length of licking for each 2-min time period was recorded. An animal receiving the requisite volume of vehicle was alternated with each mouse given the test peptide. Area under the curve (AUC) and subsequent percent of control for drug-treated animal groups (n=8) was determined using the GraphPad Prism Version 3.03. Total AUC was calculated for both the test substance and control groups for both the acute and inflammatory phases. The AUC for individual animals for each phase was also calculated and converted to percentage of total AUC of control. The average and S.E.M. for both the drug treated and control percentages were then calculated and tested for significant differences.

Sprague-Dawley rats = conditions: rat, in vivo, iv

WTLNSAGYLLGPKK(Lys-MPEG4)K-NH2 (WTLNSAGYLLGPKKK(MPEG4)K-NH2) [Gal-103]
AUC Acute (mice): 66.3 ± 14.6 | AUC Inflammatory (mice): 75.6 ± 8.9

CC[C@H](C)[C@H](NC(=O)[C@H](Cc1ccc(O)cc1)NC(=O)[C@H](Cc1c[nH]cn1)NC(=O)[C@H](CCCNC(=N)N)NC(=O)[C@H](C)NC(=O)CCCCCNC(=O)[C@H](CCCCNC(=O)CCOCCOCCOCCOCCOCCOCCOCCOCCOCCOCCOCCOCCOCCOCCOCCOCCOCCOCCOCCOCCOCCOCCOCCOC)NC(=O)[C@H](CCCCN)NC(=O)[C@H](CCCCN)NC(=O)[C@H](Cc1ccc(O)cc1)NC(C)=O)C(=O)N[C@@H](CC(N)=O)C(=O)N[C@@H](CC(C)C)C(=O)N[C@H](C(=O)N[C@H](C(=O)N[C@@H](CCCNC(=N)N)C(=O)N[C@@H](CCC(N)=O)C(=O)N[C@@H](CCCNC(=N)N)C(=O)N[C@@H](Cc1ccc(O)cc1)C(N)=O)[C@@H](C)O)[C@@H](C)CC [NPY-B42] (Ac-YKKK(MeO(CH2CH2O)23CH2CH2CO)[Ahx]ARHYINLITRQRY-NH2)
HCT 30 min (Sprague-Dawley rats): 42 ± 2 | HCT 60 min (Sprague-Dawley rats): 42 ± 1 | Phenylephrine post-treatment response BP max (Sprague-Dawley rats): 161 ± 4 | Phenylephrine post-treatment response HR min (Sprague-Dawley rats): 291 ± 26 | difference from vehicle treated rats in any cardiovascular parameter measured (Sprague-Dawley rats): neither Gal-93 or NPY-B42 showed statistically significant difference from vehicle treated rats | glucose 30 min (Sprague-Dawley rats): 78 ± 5 | glucose 60 min (Sprague-Dawley rats): 73 ± 4 | plasma protein 30 min (Sprague-Dawley rats): 6.5 ± 0.4 | plasma protein 60 min (Sprague-Dawley rats): 6.8 ± 0.3 | temperature 30 min (Sprague-Dawley rats): 37.2 ± 0.2 | temperature 60 min (Sprague-Dawley rats): 36.9 ± 0.4

(Sar)WTLNSAGYLLGPKK(Lys-α-Lnn)K(Lys-MPEG24)-NH2 ([Sar]WTLNSAGYLLGPKKK(α‑Lnn)KK(MPEG24)-NH2) [Gal-100]
AUC Acute (mice): 83.08 ± 13.34 | AUC Inflammatory (mice): 33.78 ± 3.04 | duration of licking, inflammatory phase (mice; result in words): significantly reduced

(Sar)WTLNSAGYLLGPKK(Lys-Pal)K(Lys-MPEG24)-NH2 ([Sar]WTLNSAGYLLGPKKK(Palmitoyl)KK(MPEG24)-NH2) [Gal-81]
AUC Acute (mice): 19.7 ± 7.2 | AUC Inflammatory (mice): 2.9 ± 2.2 | duration of licking, acute phase (mice; result in words): significantly reduced | duration of licking, inflammatory phase (mice; result in words): significantly reduced

(N-Methyl-Trp)TLNSAGYLLGPKK(Lys-MPEG4)K-NH2 ([NMeW]TLNSAGYLLGPKKK(MPEG4)K-NH2) [Gal-104]
duration of licking, inflammatory phase (mice; result in words): significantly reduced
